Measurements published in patent US12692259B2, “Morpholine-containing and piperazine-containing CXCR4 modulators and uses related thereto” (Emory University, priority 2021, dated 2026).

How the values were obtained:
CYP3A4 = molecular target: T1, CYP3A4 (Homo sapiens, UniProt P08684); assay: Fluorometric CYP450 inhibition assay, CYP3A4; type: in vitro ADME; conditions: read-out: CYP450 IC50 (μM) 3A4
T1 construct: purchased Corning; host or cells: insect cells (microsomes)
Procedure: (§1) The CYP450 inhibition assays utilized microsomes from insect cells expressing human recombinant individual cDNA-expressed CYP isoforms 3A4 and 2D6, as well as the fluorogenic probe that produces fluorescent metabolite. Standard inhibitors were co-incubated with fluorogenic substrates and their inhibitory potential (IC50) was determined. Assay conditions in terms of CYP450 protein concentration and time of incubation were standardized, enzyme kinetics parameters of each fluorescent probe substrate were estimated and IC50 values of inhibitors were determined and validated on different days to check reproducibility.
(§2) A 100 mM sodium phosphate buffer was prepared and adjusted to pH 7.4. In a separate falcon tube, a 2× enzyme/substrate (E/S) solution was prepared in phosphate buffer. The final concentration of CYP2D6 (CORNING®) and 7-amido-4-methyl coumaric acid (AMMC) was 10 nM and 4 μM, and CYP3A4 (CORNING®) and 7-benzyloxy-4-(trifluoromethyl) coumarin (BFC) was 20 nM and 40 μM, respectively. In a separate falcon tube, a 2×NADPH regenerating system (NRS) was prepared in phosphate buffer.
(§3) Both enzymatic assays were conducted in a 96-well microtiter plate (Black, CORNING® COSTAR®) with a final volume of 100 μL. Preparation of the plate began with the addition of 74 μL of the E/S in the first well, and 50 μL to all subsequent wells (from 2-11). […] A 1:3 serial dilution of the test compound was conducted by removing 25 μL from the first well and diluting it with the second and so forth until the tenth row. Final concentrations yielded a range from 200 μM-0.01 μM. Well no. 11 contained no inhibitor, and well no. 12 contained no enzyme. Both were used as controls for background fluorescence. The plate was incubated for 30 min at 37° C. After incubation, the reaction was initiated by the addition of 50 μL of the 2×NRS to each well.
(§4) Immediately (within 1 min) the fluorescence was measured using a microplate reader (BIOTEK® Synergy Neo2). […] Data was exported and analyzed using Graph Pad Prism 7. […] The IC50 value was derived after the data was fitted on a 10-point curve using a four-parameter logistic regression model.

CYP2D6 = molecular target: T2, CYP2D6 (Homo sapiens, UniProt P10635); assay: Fluorometric CYP450 inhibition assay, CYP2D6; type: in vitro ADME; conditions: read-out: CYP450 IC50 (μM) 2D6
T2 construct: purchased Corning; host or cells: insect cells (microsomes)
Procedure: as §1, §2, §3, §4

[1] = Metabolic stability assay, human liver microsomes (HLM); type: in vitro ADME; conditions: for half-life at 3 µM: pH 7.4, read-out: Liver Microsomes T1/2 (min) H
Excerpt: Controls were processed and analyzed like the test compounds.

PAMPA assay = type: in vitro ADME; conditions: pH 7.4
Procedure: PAMPA assay was performed by BioAssay Systems Services or Bristol Myers Squibb. The method used by BioAssay Systems Services is described below.
Stock solutions in DMSO for all compounds (10 mM) were thawed. The assay was performed in duplicate by following the PAMPA-096 procedure for sample plating. 4% Lecithin in dodecane solution was prepared by resuspending the dried lecithin with 750 μL dodecane. PBS pH 7.4 was used as the diluent. Two sets of plates and equilibrium solutions were incubated for 4 hours at room temperature. Acceptor and equilibrium solutions were analyzed in a UV plate. OD280 nm was used for High Permeability Control (chloramphenicol). OD270 nm was used for Medium Permeability Control (diclofenac) and Low Permeability Control (theophylline). OD254 nm was used for the test compounds.
Data analysis was performed by using the peak absorbance for each respective test compound and Permeability Control to determine the Permeability Rate (Pe) via the following equation: […]
where ODA is the absorbance of Acceptor Solution, ODE is the absorbance of the Equilibrium Standard, and C is determined by the equation below: […]
where Donor Volume (VD) is 0.2 cm^3, Acceptor Volume (VA) is 0.3 cm^3, and Membrane Area (Area) is 0.24 cm^2.

CXCR4 = CXCR4 (Homo sapiens, UniProt P61073); assay: cAMP assay in CXCR4-CHO-Glo cells (GloSensor, forskolin + SDF-1α); type: cell-based; parameters: expressed in transfected cells
Excerpt: Materials, reagents, and instrument—Advanced DMEM (Gibco), trypsin EDTA (0.05%, phenol red), L-glutamine, HBSS buffer with and without Ca^2+/Mg^2+ (Gibco), antibiotic-antimycotic (Gibco), hygromycin B, and geneticin selective antibiotic (G418 sulfate) were purchased from Invitrogen. Forskolin (Tocris), SDF-1α (R&D Systems), HEPES (Sigma Aldrich), FBS (Atlanta Biologicals), D-luciferin (Gold Biotechnology), sterile 60 mm tissue culture dishes, and 96-well sterile tissue culture plates were purchased from Corning.
The assay targeted CXCR4 expressed in CHO-gloSensor cells. It monitored GPCR activation based on forskolin-stimulated cAMP production in cells. The assay used a genetically encoded biosensor with its cAMP binding domain fused to luciferase. Binding of cAMP to the cAMP binding domain changed the conformation of the biosensor, leading to the activation of luciferase. The intensity of the luciferase signal (light output) resulted from the oxidation of D-luciferin to oxyluciferin is proportional to the amount of cAMP produced in the cells.
The assay was performed in triplicate using live cells in 96-well tissue culture plates. Cells were pre-incubated in the dark at room temperature for one hour in the presence of D-luciferin. Bioluminescence was quantified before and after the agonist/antagonist addition. Stock solution of forskolin and SDF-1a, was prepared in Locke-Luc buffer. Stock solutions of the test compounds were prepared in DMSO (10 mM); they were diluted by Locke's buffer for use in the assay.
CHO-Glo cells, a cell line stably expressing the GloSensor cAMP biosensor (Promega), were transfected with cDNA encoding human CXCR4 in Pires-AcGFP1 (Clontech) and a stable cell line was isolated (CXCR4-CHO-Glo cells). The CXCR4-CHO-Glo cells were grown to confluency on 60 mm tissue culture dishes. After trypsinization, the cells were plated on 96-well plates and incubated overnight. The next day, culture media in each well was aspirated and replaced with 100 μL Locke's buffer containing 4 mM D-luciferin, followed by incubation in the dark for one hour. Before the addition of agonist/antagonist, each plate was read five times at 2 min intervals to obtain basal bioluminescence values from each well. The average of these five pre-readings was used to normalize each well's response to account for differences in GloSensor expression and cell density. After five pre-readings, cAMP formation was initiated with the addition of 50 μL solution of test compound (TC) in Locke Luc buffer containing forskoline and SDF-1α. […] Luminescence was measured immediately after the addition of the antagonist solution. The measurements were taken every two minutes for 30 minutes in kinetics mode after antagonist addition. IC50 values were calculated from the 4-parameter logistic equation using Prism GraphPad.

T2 sequence (P10635 whole entry): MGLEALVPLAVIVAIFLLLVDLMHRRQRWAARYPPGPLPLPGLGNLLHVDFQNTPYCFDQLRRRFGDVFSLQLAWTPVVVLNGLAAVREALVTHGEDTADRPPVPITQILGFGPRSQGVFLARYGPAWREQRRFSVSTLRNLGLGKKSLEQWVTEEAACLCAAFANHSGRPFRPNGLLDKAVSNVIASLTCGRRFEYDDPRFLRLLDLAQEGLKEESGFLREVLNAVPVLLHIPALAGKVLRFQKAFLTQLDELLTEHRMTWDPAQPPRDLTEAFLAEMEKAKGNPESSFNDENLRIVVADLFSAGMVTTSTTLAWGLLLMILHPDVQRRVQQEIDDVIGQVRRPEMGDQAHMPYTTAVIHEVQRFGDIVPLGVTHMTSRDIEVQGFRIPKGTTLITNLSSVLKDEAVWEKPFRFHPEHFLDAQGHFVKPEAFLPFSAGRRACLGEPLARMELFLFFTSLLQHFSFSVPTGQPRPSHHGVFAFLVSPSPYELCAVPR
T1 sequence (P08684 whole entry): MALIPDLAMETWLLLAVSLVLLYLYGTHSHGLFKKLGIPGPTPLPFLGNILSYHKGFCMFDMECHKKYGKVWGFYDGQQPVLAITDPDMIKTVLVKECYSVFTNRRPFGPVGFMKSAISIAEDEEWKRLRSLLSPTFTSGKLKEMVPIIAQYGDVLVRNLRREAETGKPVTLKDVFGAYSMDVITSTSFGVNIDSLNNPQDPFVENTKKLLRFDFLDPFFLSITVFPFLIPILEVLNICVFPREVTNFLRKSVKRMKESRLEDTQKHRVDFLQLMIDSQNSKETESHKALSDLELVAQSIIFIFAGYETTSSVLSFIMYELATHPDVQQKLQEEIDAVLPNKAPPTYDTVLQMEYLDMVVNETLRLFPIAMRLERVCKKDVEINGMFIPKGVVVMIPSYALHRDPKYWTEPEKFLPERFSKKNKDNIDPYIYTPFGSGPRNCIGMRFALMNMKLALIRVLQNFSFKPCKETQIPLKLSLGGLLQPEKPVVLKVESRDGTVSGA
Sequence of CXCR4 (P61073 whole entry): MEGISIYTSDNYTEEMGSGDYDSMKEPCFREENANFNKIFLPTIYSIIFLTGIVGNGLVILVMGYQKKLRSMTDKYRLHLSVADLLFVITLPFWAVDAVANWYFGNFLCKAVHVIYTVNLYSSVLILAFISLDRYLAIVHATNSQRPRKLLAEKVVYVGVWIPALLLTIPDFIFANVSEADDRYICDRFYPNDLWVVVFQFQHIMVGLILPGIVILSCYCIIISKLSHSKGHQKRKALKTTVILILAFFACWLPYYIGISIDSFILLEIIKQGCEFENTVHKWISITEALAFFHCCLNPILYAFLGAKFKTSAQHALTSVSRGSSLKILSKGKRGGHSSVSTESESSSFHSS

Structure (SMILES) | IC50 (CYP3A4) [µM] | IC50 (CYP2D6) [µM] | half-life at 3 µM [1] [min] | Papp at 4 h (PAMPA assay) [×10⁻⁶ cm/s] | IC50 (CXCR4) [µM] | Liver Microsomes % rem. @ 10 min. H [1] [%]
CN1CCN(c2cccc3c2C[C@H](CN(C)[C@H]2CCCc4cccnc42)NC3)CC1=O [EMU-255, 1-methyl-4-((R)-3-((methyl((S)-5,6,7,8-tetrahydroquinolin-8-yl)amino)methyl)-1,2,3,4-tetrahydroisoquinolin-5-yl)piperazin-2-one] | 13.7 | 43.1 | 16 | 13.6 | 0.0693 | –
CN(C[C@H]1Cc2c(cccc2N2CCN3CCOC[C@H]3C2)CN1)[C@H]1CCCc2cccnc21 [EMU-343, (S)—N—(((R)-5-((R)-hexahydropyrazino[2,1-c][1,4]oxazin-8(1H)-yl)-1,2,3,4-tetrahydroisoquinolin-3-yl)methyl)-N-methyl-5,6,7,8-tetrahydroquinolin-8-amine] | > 20 | 4.1 | – | – | 0.00615 | 23.7
CN(C[C@H]1Cc2c(cccc2N2CCN(S(C)(=O)=O)CC2)CN1)[C@H]1CCCc2cccnc21 [EMU-263, (S)—N-methyl-N—(((R)-5-(4-(methylsulfonyl)piperazin-1-yl)-1,2,3,4-tetrahydroisoquinolin-3-yl)methyl)-5,6,7,8-tetrahydroquinolin-8-amine] | 24.1 | 34.4 | 10 | 13.4 | 0.0483 | –
CN(C[C@H]1Cc2c(cccc2N2CCNC(=O)C2)CN1)[C@H]1CCCc2cccnc21 [EMU-254, 4-((R)-3-((methyl((S)-5,6,7,8-tetrahydroquinolin-8-yl)amino)methyl)-1,2,3,4-tetrahydroisoquinolin-5-yl)piperazin-2-one] | 14.3 | 8.1 | 37 | 11.8 | 0.0316 | –
CN(C[C@H]1Cc2c(cccc2N2CC3COC2C3)CN1)[C@H]1CCCc2cccnc21 (stereo in doubt) [EMU-324, (S)—N—(((R)-5-((1S,4R)-2-oxa-6-azabicyclo[2.2.1]heptan-6-yl)-1,2,3,4-tetrahydroisoquinolin-3-yl)methyl)-N-methyl-5,6,7,8-tetrahydroquinolin-8-amine] | 3.5 | > 20 | – | 10.6 | 0.055 | 48.5
CN1CCN(c2cccc3c2C[C@@H](CN(C)[C@H]2CCCc4cccnc42)NC3)C(=O)C1 [EMU-251, 4-methyl-1-((S)-3-((methyl((S)-5,6,7,8-tetrahydroquinolin-8-yl)amino)methyl)-1,2,3,4-tetrahydroisoquinolin-5-yl)piperazin-2-one] | 48.4 | > 50 | 288 | 14.6 | 0.244 | –
CCOC(=O)N1CCN(c2cccc3c2C[C@H](CN(C)[C@H]2CCCc4cccnc42)NC3)CC1 [EMU-261, ethyl 4-((R)-3-((methyl((S)-5,6,7,8-tetrahydroquinolin-8-yl)amino)methyl)-1,2,3,4-tetrahydroisoquinolin-5-yl)piperazine-1-carboxylate] | 7.82 | 4.47 | 4.9 | 14.6 | 0.0037 | –
CN1CCN(c2cccc3c2CC(CN(C)[C@H]2CCOc4cccnc42)NC3)CC1 (stereo partly drawn) [EMU-320, (4S)—N-methyl-N-((5-(4-methylpiperazin-1-yl)-1,2,3,4-tetrahydroisoquinolin-3-yl)methyl)-3,4-dihydro-2H-pyrano[3,2-b]pyridin-4-amine] | 3.2 | – | – | 16.7 | 0.0289 | 74.7
CC(=O)N1CCN(c2cccc3c2C[C@H](CN(C)[C@H]2CCCc4cccnc42)NC3)CC1 [EMU-262, 1-(4-((R)-3-((methyl((S)-5,6,7,8-tetrahydroquinolin-8-yl)amino)methyl)-1,2,3,4-tetrahydroisoquinolin-5-yl)piperazin-1-yl)ethan-1-one] | 16.3 | > 50 | 16 | 14.6 | 0.0146 | –
